Source: the supplement of paper PMC10307832

Tests used:
Experiment in all cases: relative viability (nuclei count vs DMSO), 5 days (fraction); higher = more cells survive
[1] = compound: CC1=CC=C(C=C1)C(=O)CN2C3=C(CCCC3)SC2=N [Pifithrin_alpha] + CC1(C)CCC(c2ccc(Cl)cc2)=C(CN2CCN(c3ccc(C(=O)NS(=O)(=O)c4ccc(N[C@H](CCN5CCOCC5)CSc5ccccc5)c(S(=O)(=O)C(F)(F)F)c4)cc3)CC2)C1 [Navitoclax] (partner 0.5 µM)
How it was run: (§1)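 Lung cancer cell lines in 1536-well plates got either a single drug or a fixed anchor-drug dose together with five library-drug doses (not always all listed) in √10 steps, by pin tool, on the day after seeding. Nuclei were counted after 5 days, and relative viability is the treated-to-vehicle ratio of nuclei counts. Values are medians of duplicate plates.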

[2] = compound: CC1=CC=C(C=C1)C(=O)CN2C3=C(CCCC3)SC2=N [Pifithrin_alpha] + N=C(N)NC(=N)NCCc1ccccc1 [Phenformin] (partner 250 µM)
How it was run: as §1

Axitinib + Luminespib = compound: CNC(=O)c1ccccc1Sc1ccc2c(/C=C/c3ccccn3)n[nH]c2c1 [Axitinib] + CCNC(=O)c1noc(-c2cc(C(C)C)c(O)cc2O)c1-c1ccc(CN2CCOCC2)cc1 [Luminespib] (partner 0.01 µM)
How it was run: as §1

Axitinib + Trametinib = compound: CNC(=O)c1ccccc1Sc1ccc2c(/C=C/c3ccccn3)n[nH]c2c1 [Axitinib] + CC(=O)Nc1cccc(-n2c(=O)n(C3CC3)c(=O)c3c(Nc4ccc(I)cc4F)n(C)c(=O)c(C)c32)c1 [Trametinib] (partner 0.02 µM)
How it was run: as §1

Cell Line	relative viability ([1]; first compound 1 µM)	relative viability ([1]; first compound 3.162 µM)	relative viability ([1]; first compound 10 µM)	relative viability ([1]; first compound 31.62 µM)	relative viability ([1]; first compound 100 µM)	relative viability ([2]; first compound 1 µM)	relative viability ([2]; first compound 3.162 µM)	relative viability ([2]; first compound 10 µM)	relative viability ([2]; first compound 100 µM)	relative viability (Axitinib + Luminespib; first compound 0.005 µM)	relative viability (Axitinib + Luminespib; first compound 0.01581 µM)	relative viability (Axitinib + Luminespib; first compound 0.05 µM)	relative viability (Axitinib + Luminespib; first compound 0.1581 µM)	relative viability (Axitinib + Luminespib; first compound 0.5 µM)	relative viability (Axitinib + Trametinib; first compound 0.005 µM)	relative viability (Axitinib + Trametinib; first compound 0.01581 µM)	relative viability (Axitinib + Trametinib; first compound 0.05 µM)	relative viability (Axitinib + Trametinib; first compound 0.1581 µM)	relative viability (Axitinib + Trametinib; first compound 0.5 µM)	relative viability ([2]; first compound 31.62 µM)
NCI-H2023	0.914	0.968	0.8	0.676	0.822	0.521	0.485	0.456	0.389	0.76	0.942	0.752	0.745	0.97	0.634	0.483	0.489	0.439	0.57	–
NCI-H3122	1.03	1.02	1.03	0.845	1.05	0.376	0.356	0.327	0.283	0.0794	0.103	0.092	0.0739	0.0873	0.217	0.212	0.255	0.217	0.267	–
SK-MES-1	1.19	1.17	1.16	0.829	0.924	0.571	0.67	0.659	0.571	0.774	0.781	0.746	0.766	0.825	0.553	0.562	0.569	0.485	0.581	0.474
NCI-H1650	1.31	1.15	0.973	0.675	0.865	–	0.446	0.333	0.349	0.195	0.194	0.192	0.203	0.236	0.613	0.469	0.682	0.648	0.749	0.273
NCI-H2170	0.557	0.512	0.576	0.494	0.535	0.411	0.41	0.376	0.358	0.718	0.639	0.743	0.647	0.688	0.925	0.926	0.875	0.917	1.08	0.321
NCI-H441	0.652	0.813	0.587	0.481	0.831	0.893	0.988	1.15	0.994	0.305	0.325	0.313	0.456	0.576	0.521	0.404	0.331	0.485	0.567	–
NCI-H2087	0.948	1.04	0.998	0.742	0.715	0.356	0.488	0.485	0.451	0.162	0.202	0.177	0.176	0.172	0.206	0.182	0.196	0.21	0.242	–
RERF-LC-KJ	0.591	0.619	0.5	0.824	0.412	0.454	0.402	0.368	0.263	1.23	1.2	1.17	1.21	1.42	0.952	0.91	0.875	0.833	0.966	0.316
NCI-H1437	1.25	1.16	1.13	0.784	0.775	0.296	0.258	0.294	0.259	1.12	1.1	1.07	1.16	1.08	0.634	0.488	0.557	0.554	0.519	0.264
NCI-H1651	1.05	1.06	0.924	0.604	0.865	0.345	0.351	0.387	0.317	0.941	0.965	1.03	0.745	1	0.9	0.84	0.744	0.797	0.826	0.26
PC-14	1.01	0.988	0.988	0.881	0.847	0.536	0.567	0.525	0.413	0.295	–	0.171	0.141	0.164	0.763	0.789	0.879	0.759	1.04	0.406
NCI-H1792	0.438	0.753	0.339	0.325	0.529	0.292	–	0.472	0.372	0.555	0.34	0.325	0.417	0.418	0.618	0.363	0.499	0.494	0.498	–
NCI-H1666	0.84	0.61	0.432	0.635	0.354	0.525	0.52	0.425	0.436	0.974	0.975	1.01	1.03	0.957	0.904	0.868	0.863	0.847	0.873	0.455
LK-2	0.862	1	0.749	0.534	0.997	0.352	0.571	0.563	0.466	0.185	0.146	0.19	0.185	0.18	0.773	0.631	0.515	0.726	0.547	–
HCC-44	0.8	0.899	0.795	0.701	0.801	0.17	0.164	0.171	0.178	1.07	1.07	0.484	1.04	1.35	1.05	1.1	1.05	1.06	1.03	0.133
PC-3 [JPC-3]	0.749	0.74	0.746	0.789	0.726	0.497	0.482	0.409	0.488	0.663	0.653	0.712	0.739	0.779	0.756	–	0.626	0.762	0.741	0.47
LC-2-ad	0.462	0.323	0.408	0.249	0.32	–	0.601	0.646	0.588	1.01	1.13	1.04	0.897	0.956	0.953	0.864	0.885	0.873	0.871	–

Cell Line	relative viability ([1]; first compound 1 µM)	relative viability ([1]; first compound 3.162 µM)	relative viability ([1]; first compound 10 µM)	relative viability ([1]; first compound 31.62 µM)	relative viability ([1]; first compound 100 µM)	relative viability ([2]; first compound 1 µM)	relative viability ([2]; first compound 3.162 µM)	relative viability ([2]; first compound 10 µM)	relative viability ([2]; first compound 100 µM)	relative viability (Axitinib + Luminespib; first compound 0.005 µM)	relative viability (Axitinib + Luminespib; first compound 0.01581 µM)	relative viability (Axitinib + Luminespib; first compound 0.05 µM)	relative viability (Axitinib + Luminespib; first compound 0.1581 µM)	relative viability (Axitinib + Luminespib; first compound 0.5 µM)	relative viability (Axitinib + Trametinib; first compound 0.005 µM)	relative viability (Axitinib + Trametinib; first compound 0.01581 µM)	relative viability (Axitinib + Trametinib; first compound 0.05 µM)	relative viability (Axitinib + Trametinib; first compound 0.1581 µM)	relative viability (Axitinib + Trametinib; first compound 0.5 µM)	relative viability ([2]; first compound 31.62 µM)
ChaGo-K-1	0.873	0.999	0.888	0.734	0.891	0.485	0.5	0.491	0.472	0.591	0.703	0.44	0.495	0.533	0.872	0.874	0.902	0.858	0.887	0.387
NCI-H460	1.41	0.989	0.989	–	0.933	0.494	0.576	0.473	0.443	0.0293	0.0335	0.0318	0.0323	0.0338	0.165	0.177	0.188	0.297	0.253	0.179
NCI-H1395	–	1.15	1.34	0.604	1.31	0.428	0.433	0.411	0.41	0.8	0.76	0.838	0.609	0.586	1	0.789	0.941	0.911	1.02	0.416
NCI-H727	0.356	0.412	0.307	0.244	0.271	0.604	0.572	0.538	0.501	0.325	0.276	0.345	0.346	0.278	0.375	0.369	0.402	0.377	0.414	–
NCI-H838	1.14	1.06	1	0.833	0.882	0.548	0.514	0.554	0.444	0.247	0.33	0.334	0.24	0.246	0.565	0.486	0.584	0.52	0.572	0.412
NCI-H1755	0.935	0.973	0.888	0.628	0.966	0.605	0.603	0.57	0.53	0.527	0.63	0.533	0.364	0.428	0.806	0.764	0.786	0.822	0.789	0.423
EMC-BAC-2	1.22	1.29	1.17	0.933	1.31	0.504	0.511	0.478	0.556	1.27	1.12	1.19	1.21	1.25	0.952	0.905	0.898	0.926	0.88	–
EKVX	0.936	0.886	0.738	0.645	0.595	0.207	–	0.201	0.199	0.879	0.86	0.828	0.878	0.965	0.286	0.29	0.347	0.323	0.406	0.213
NCI-H647	0.814	1.07	0.86	–	1.03	0.58	0.674	0.548	0.4	0.292	0.167	0.168	0.227	0.285	0.587	0.484	0.49	0.407	0.506	0.299
LU99A	0.823	0.782	0.874	–	0.892	0.817	0.809	0.904	0.763	0.239	0.265	0.241	0.302	0.303	0.547	0.463	0.534	0.541	0.511	0.406
NCI-H1734	0.892	0.95	0.796	0.745	0.734	0.358	0.456	0.372	0.376	0.19	0.221	0.212	0.2	0.191	0.676	0.549	0.608	0.686	0.669	0.362
HARA	1.17	1.22	1.17	0.767	0.945	–	0.441	0.409	0.407	0.791	0.823	0.901	0.721	0.639	0.727	0.707	0.768	0.618	0.949	–
NCI-H2228	0.88	0.839	0.804	0.599	0.729	0.312	0.265	0.374	0.205	0.142	0.118	0.147	0.174	0.138	0.683	0.515	0.561	0.478	0.509	0.256
HCC-827	1.02	0.917	0.849	0.672	0.694	0.438	0.432	0.414	0.395	0.599	0.514	0.325	0.728	0.459	0.572	0.519	0.552	0.548	0.518	0.409
EPLC-272H	–	0.978	1.02	0.894	1.25	0.266	0.305	0.364	0.222	0.332	0.376	0.338	0.251	0.314	0.312	0.273	0.255	0.249	0.289	0.246
SW 1573	1.06	1.03	1.18	0.923	0.893	0.357	0.39	0.436	0.346	0.325	0.253	0.424	0.586	0.13	0.525	0.558	0.665	0.521	0.611	0.37
